Test results as given in paper PMC9320114 (Molecules, 2022).
Where two headings read alike, the source gives them in different places.

Legend:
[1] = target: MurA (Escherichia coli, UniProt P0A749); test: Inhibition of MurA, colorimetric malachite green method; format: biochemical, bacterial; settings: Table 1; for MurA RA (%): residual activity at 100 µM; for IC50: read-out: MurA IC50
Procedure: Inhibition of Mur enzymes was monitored with the colorimetric malachite green method, which measured orthophosphate formed during reaction. The mixtures with a final volume of 50 µL contained:
MurA: 50 mM HEPES-NaOH, pH 7.8, 0.005% Triton X-114, 200 µM uridine-diphosphate-N-acetylglucosamine, 100 µM phosphoenolpyruvate, purified MurA, and 50 or 100 µM of each compound tested.
All compounds were soluble in the assay mixtures containing 5% DMSO (v/v). After incubation for 15 min (20 min for DdlB) at 37 °C, the enzyme reaction was terminated by addition of Biomol® reagent (100 µL) and absorbance was measured after 5 min at 650 nm (Synergy™ H4 microplate reader; BioTek Instruments, Inc., BioTek Gen5 Data Analysis Software, version 2.9, Santa Clara, CA, USA). All experiments were performed in duplicate.

[2] = target: human butyrylcholinesterase (hBChE) (Homo sapiens, UniProt P06276); test: biochemical; format: biochemical; settings: for IC50: read-out: hBChE IC50; for remaining activity at 10 µM: read-out: hBChE RA (%)
Procedure: (§1) Enzyme solutions were prepared by diluting the concentrated enzyme stock solutions (4.6 mg/mL in 10 mM MES-NaOH buffer, pH 6.5) in a sodium phosphate-buffered solution (0.1 M, pH 8.0). […] The final organic solvent (DMSO) content was always 1% (v/v). Reactions were initiated by adding the substrate to the enzyme and inhibitor, which were preincubated for 5 min. […] To determine the blank value (b), the enzyme solution was replaced by a phosphate-buffered solution. The initial velocity (v) was calculated from the slope of the linear trend obtained, with each measurement performed in triplicate. The inhibitory potencies were expressed as RA=(vi − b)/(vo − b), where vi is the velocity in the presence of the test compounds and vo is the control velocity in the presence of DMSO. Seven different concentrations of each compound were used for the IC50 measurements. IC50 values were obtained by plotting the residual enzyme activities against the applied inhibitor concentrations, fitting the experimental data to the 4-parameter Hill equation:(1) Y=Bottom+(Top−Bottom)/1+10^((LogIC50−X)×Hill Slope) where X is the logarithm of the inhibitor concentration, and Y is the residual activity. GraphPad Prism 8.2.0 (GraphPad Software, San Diego, CA, USA) was used for the fitting procedure.

[3] = target: T1, murine acetylcholinesterase (mAChE) (Mus musculus, UniProt P21836); test: biochemical; format: biochemical; settings: for remaining activity at 10 µM: residual activity at 10 µM, read-out: mAChE RA (%)
T1 sequence (P21836 32-614): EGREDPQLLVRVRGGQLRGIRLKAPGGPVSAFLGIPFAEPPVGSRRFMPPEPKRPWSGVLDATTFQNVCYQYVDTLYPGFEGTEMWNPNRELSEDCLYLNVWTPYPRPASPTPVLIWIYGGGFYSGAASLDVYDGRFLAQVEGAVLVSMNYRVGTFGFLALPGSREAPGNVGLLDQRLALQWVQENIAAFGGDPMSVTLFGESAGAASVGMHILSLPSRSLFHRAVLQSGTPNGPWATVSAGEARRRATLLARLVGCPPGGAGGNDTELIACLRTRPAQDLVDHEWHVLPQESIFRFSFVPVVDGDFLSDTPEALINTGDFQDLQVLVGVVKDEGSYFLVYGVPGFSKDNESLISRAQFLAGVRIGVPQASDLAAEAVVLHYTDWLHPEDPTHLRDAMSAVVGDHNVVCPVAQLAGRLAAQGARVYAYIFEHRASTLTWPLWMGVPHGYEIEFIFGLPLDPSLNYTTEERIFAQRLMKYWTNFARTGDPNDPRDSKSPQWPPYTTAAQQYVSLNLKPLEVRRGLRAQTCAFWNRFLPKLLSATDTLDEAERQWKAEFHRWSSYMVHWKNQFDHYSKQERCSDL
Procedure: as §1

[4] = target: T2, hMAO-B (Homo sapiens, UniProt P27338); test: biochemical; settings: residual activity at 10 µM; Table 3
T2 construct: purchased Sigma Aldrich; host or cells: BTI-TN-5B1-4 baculovirus-infected insect cells
T2 sequence (P27338 1-520): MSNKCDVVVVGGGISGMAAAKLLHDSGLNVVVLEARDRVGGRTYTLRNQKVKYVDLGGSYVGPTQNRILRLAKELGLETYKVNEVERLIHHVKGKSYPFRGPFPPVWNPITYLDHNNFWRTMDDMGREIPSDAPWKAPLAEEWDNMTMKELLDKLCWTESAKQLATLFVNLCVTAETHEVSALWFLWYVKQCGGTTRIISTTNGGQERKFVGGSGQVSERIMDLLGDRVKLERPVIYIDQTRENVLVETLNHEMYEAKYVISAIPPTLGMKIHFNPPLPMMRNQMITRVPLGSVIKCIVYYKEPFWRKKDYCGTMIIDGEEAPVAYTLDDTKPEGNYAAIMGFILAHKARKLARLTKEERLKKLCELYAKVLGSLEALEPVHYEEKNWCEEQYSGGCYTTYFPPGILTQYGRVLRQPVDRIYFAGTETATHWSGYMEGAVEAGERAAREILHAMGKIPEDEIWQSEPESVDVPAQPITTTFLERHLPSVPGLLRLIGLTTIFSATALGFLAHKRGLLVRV
Description: The effects of the compounds on hMAO-A and hMAO-B were investigated using a fluorimetric assay, following a method previously described in the literature. Recombinant human microsomal hMAO enzymes expressed in BTI-TN-5B1-4 baculovirus-infected insect cells, horseradish peroxidase (HRP, type II, lyophilized powder), and p-tyramine hydrochloride were purchased from Sigma Aldrich. 10-Acetyl-3,7-dihydroxyphenoxazine (Amplex Red reagent) was synthesized as described in the literature.
After preincubation, the reaction was started by adding final concentrations of 200 µM Amplex Red reagent, 2 U/mL HRP, and 1 mM p-tyramine hydrochloride. Resorufin production was quantified based on the fluorescence produced (λex = 530 nm; λem = 590 nm) at 37 °C over a 20 min period. For the control experiments, DMSO was used instead of appropriate dilutions of the compounds in DMSO. For the determination of blank (b), the enzyme solution was replaced by a phosphate-buffered solution. Initial velocities were calculated from the obtained trend, with each measurement performed in duplicate. Specific fluorescence emission to determine the final results was calculated after subtracting the blank activity (b). Inhibitory potencies were expressed as RAs, and IC50 values were calculated as described in the section “Inhibition of hBChE and mAChE” above.

[5] = residual activity at 10 µM, Table 4

Chain of human butyrylcholinesterase (hBChE) (P06276 29-602): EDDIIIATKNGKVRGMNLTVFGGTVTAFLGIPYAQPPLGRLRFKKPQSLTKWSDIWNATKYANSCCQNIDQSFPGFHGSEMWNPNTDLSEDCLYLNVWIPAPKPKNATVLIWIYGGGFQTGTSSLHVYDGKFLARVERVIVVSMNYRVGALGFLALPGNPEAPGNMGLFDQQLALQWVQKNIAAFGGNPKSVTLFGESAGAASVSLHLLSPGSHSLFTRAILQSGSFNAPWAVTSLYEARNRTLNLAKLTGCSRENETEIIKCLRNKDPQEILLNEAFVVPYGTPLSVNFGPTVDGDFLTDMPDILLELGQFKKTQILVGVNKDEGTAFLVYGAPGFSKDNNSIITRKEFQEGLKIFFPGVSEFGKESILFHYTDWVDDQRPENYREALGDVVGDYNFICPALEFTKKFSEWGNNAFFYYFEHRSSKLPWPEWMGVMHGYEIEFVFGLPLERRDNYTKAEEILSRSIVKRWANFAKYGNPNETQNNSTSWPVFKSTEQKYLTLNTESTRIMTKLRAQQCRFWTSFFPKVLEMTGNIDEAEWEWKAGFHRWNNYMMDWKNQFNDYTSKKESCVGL
Chain of MurA (P0A749 whole entry): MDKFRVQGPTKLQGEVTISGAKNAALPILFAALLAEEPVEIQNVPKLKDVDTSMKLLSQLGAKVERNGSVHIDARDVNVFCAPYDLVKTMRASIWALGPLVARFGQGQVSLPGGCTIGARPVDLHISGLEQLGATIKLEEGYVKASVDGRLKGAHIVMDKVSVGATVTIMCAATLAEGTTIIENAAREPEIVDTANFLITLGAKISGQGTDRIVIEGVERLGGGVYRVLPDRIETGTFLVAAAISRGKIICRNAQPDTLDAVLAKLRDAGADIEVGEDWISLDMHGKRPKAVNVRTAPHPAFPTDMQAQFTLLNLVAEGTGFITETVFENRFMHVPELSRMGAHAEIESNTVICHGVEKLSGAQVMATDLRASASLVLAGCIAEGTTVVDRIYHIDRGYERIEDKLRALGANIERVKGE

Compound	MurA RA (%) [1] [%]	hBChE RA (%) [2] [%]	mAChE RA (%) [3] [%]	IC50 ([2]; Table 4, IC50 ± SEM) [µM]	remaining activity at 10 µM [2, 5] [%]	remaining activity at 10 µM ([3]; Table 4) [%]	other results
CCCCc1ccc(C#Cc2ccc(CN(C(=O)CC(C)(C)C)c3ccc(F)c(C(=O)O)c3)cc2)cc1 [Compound 1]	0	100	2				MurA IC50 (µM) ([1]; IC50 ± SEM): No clear dose-dependency; IC50 [3]: 1.2 ± 0.05 µM
CC(C)(C)c1ccc(C#Cc2ccc(CN(CC3CC3)c3ccc(O)c(C(=O)O)c3)cc2)cc1 [Compound 2]	64	100	99				
CC(C)(C)CCN(Cc1ccc(C#Cc2ccc(F)cc2)cc1)C(=O)c1ccc(C(=O)O)cc1 [Compound 3]	58	100	100				
Cc1ccc(C#Cc2ccc(CN(CCC(C)(C)C)c3ccc(O)c(C(=O)O)c3)cc2)cc1 [Compound 4]	14	100	100				IC50 ([1]; IC50 ± SEM): 102 ± 15 µM
CCCCc1ccc(C#Cc2ccc(CN(CC3CC3)c3ccc(O)c(C(=O)O)c3)cc2)cc1 [Compound 5]	0	16	2				IC50 ([1]; IC50 ± SEM): 7 ± 3 µM; IC50 [2]: 2.4 ± 0.2 µM; IC50 [3]: 1.1 ± 0.1 µM
CC(C)(C)CCN(Cc1ccc(C#Cc2ccc(F)cc2)cc1)C(=O)c1ccc(O)c(C(=O)O)c1 [Compound 6]	0	95	13				IC50 ([1]; IC50 ± SEM): 27 ± 7 µM; IC50 [3]: 4.8 ± 1.3 µM
CCCCCCN(Cc1ccc(C#Cc2ccc(CCCC)cc2)cc1)c1ccc(F)c(C(=O)OC)c1 [Compound 7]	100	45	19				IC50 [2]: ~19.7 µM; IC50 [3]: 0.682 ± 0.086 µM
CCCCCCN(Cc1ccc(C#Cc2ccc(C(C)(C)C)cc2)cc1)c1ccc(F)c(C(=O)O)c1 [Compound 8]	0	71	22				IC50 ([1]; IC50 ± SEM): 14 ± 5 µM; IC50 [3]: 0.368 ± 0.052 µM
COC(=O)c1cc(N(Cc2ccc(C#Cc3ccc(C(C)(C)C)cc3)cc2)CC2CC2)ccc1F [Compound 9]	10	80					IC50 ([1]; IC50 ± SEM): 91 ± 13 µM; IC50 [3]: 1.8 ± 0.45 µM
C1=C(c2cccc3ccccc23)CCN(CCCCc2c[nH]c3ccccc23)C1 [Compound 30]				0.4 ± 0.057	6	76	
CC(C)c1ccc2[nH]cc(CCCCN3CC=C(c4ccccc4)CC3)c2c1 [Compound 31]				0.0599 ± 0.0055	0	44	IC50 ([3]; Table 4, IC50 ± SEM): 14 ± 4 µM
O=C(O)c1cccc2[nH]cc(CCCCN3CC=C(c4ccccc4)CC3)c12 [Compound 32]				14.5 ± 2.2	49	71	
Oc1ccc2c(CCCCN3CC=C(c4ccccc4)CC3)c[nH]c2c1 [Compound 33]				0.267 ± 0.001	3	61	
OCC1=C(c2ccc(F)cc2)CCN(CCCCc2c[nH]c3ccccc23)C1 [Compound 34]				0.493 ± 0.088	7	31	IC50 ([3]; Table 4, IC50 ± SEM): 7 ± 1 µM
N#Cc1ccc2[nH]cc(CCCCN3CC=C(c4ccc5c(c4)OCC5)CC3)c2c1 [Compound 35]				2.9 ± 0.1	31	59	
O=C(O)c1ccc2[nH]cc(CCCCN3CCc4c(c(=O)oc5ccccc45)C3)c2c1 [Compound 36]					97	78	
COc1ccc2[nH]cc(CCCCN3CCc4c([nH]c5ccc(OC)cc45)C3)c2c1 [Compound 37]				2.3 ± 0.1	23	88	
COC(=O)CNC(=O)c1ccc2[nH]cc(CCCCN3CC=C(c4ccccc4)CC3)c2c1 [Compound 38]				0.319 ± 0.051	4	100	
Fc1ccc2[nH]cc(CCCCN3CC=C(c4ccccc4)CC3)c2c1 [Compound 39]				0.07 ± 0.005	0	47	IC50 ([3]; Table 4, IC50 ± SEM): 15 ± 5 µM
C[C@@H]1O[C@@H]1P(=O)(O)O [Fosfomycin, reference compound]	0						IC50 ([1]; IC50 ± SEM): 0.24 ± 0.02 µM
C[C@H](NCc1ccc(OCc2cccc(F)c2)cc1)C(N)=O [Safinamide, reference compound]							hMAO-B RA [%] [4]: 0%
Nc1c2c(nc3ccccc13)CCCC2 [Tacrine, reference compound]							hBChE RA (%) ([2]; residual activity at 10 µM, Table 1): 0%
